By EC50 is commonly meant the concentration at which the effect is half-maximal.

Structures are written as SMILES.

One assay has as its system recombinant NL-Rluc virus. As to the kind of experiment: microbe, parasite or virus in culture. The format is cell-based, HIV. The settings on record: Human immunodeficiency virus 1, MT2, 120 h.
For the molecule `Cc1nc2cc(-n3cc(Cc4ccccc4)cn3)nn2c(N2CCC(C)(C)CC2)c1[C@H](OC(C)(C)C)C(=O)O` [Example 33, (S)-2-(2-(4-Benzyl-1H-pyrazol-1-yl)-7-(4,4-dimethylpiperidin-1-yl)-5-methylpyrazolo[1,5-a]pyrimidin-6-yl)-2-(tert-butoxy)acetic acid], the EC50 worked out at 11 nM.

Still in this assay, the particulars now being: Human immunodeficiency virus 1, MT2, 120 h, NL-RLuc virus infecting MT-2 cells, 5 days of incubation, luciferase readout; at least 2 experiments; serum condition not given; read-out: EC50.
For `Cc1nc2cc(N3CCN(Cc4ccccc4)C3=O)nn2c(N2CCC(C)(C)CC2)c1[C@H](OC(C)(C)C)C(=O)O` [Example 26, (S)-2-(2-(3-Benzyl-2-oxoimidazolidin-1-yl)-7-(4,4-dimethylpiperidin-1-yl)-5-methylpyrazolo[1,5-a]pyrimidin-6-yl)-2-(tert-butoxy)acetic acid], the EC50 came to 145 nM.
Consider `Cc1nc2cc(-n3cnc(Cc4ccccc4)c3)nn2c(N2CCC(C)(C)CC2)c1[C@H](OC(C)(C)C)C(=O)O` [Example 34, (S)-2-(2-(4-Benzyl-1H-imidazol-1-yl)-7-(4,4-dimethylpiperidin-1-yl)-5-methylpyrazolo[1,5-a]pyrimidin-6-yl)-2-(tert-butoxy)acetic acid], for which the EC50 worked out at 26 nM.
Same read-out and setting: the figure for `Cc1nc2cc(-n3nccc3Cc3ccccc3)nn2c(N2CCC(C)(C)CC2)c1[C@H](OC(C)(C)C)C(=O)O` [Example 35, (S)-2-(2-(5 Benzyl-1H-pyrazol-1-yl)-7-(4,4-dimethylpiperidin-1-yl)-5-methylpyrazolo[1,5-a]pyrimidin-6-yl)-2-(tert-butoxy)acetic acid] is 573 nM; for `Cc1nc2cc(-n3ccc(Cc4ccccc4)n3)nn2c(N2CCC(C)(C)CC2)c1[C@H](OC(C)(C)C)C(=O)O` [Example 36, (S)-2-(2-(3-Benzyl-1H-pyrazol-1-yl)-7-(4,4-dimethylpiperidin-1-yl)-5-methylpyrazolo[1,5-a]pyrimidin-6-yl)-2-(tert-butoxy)acetic acid] it is 84 nM.
Consider `C=CCOc1ccccc1Cc1cnn(-c2cc3nc(C)c([C@H](OC(C)(C)C)C(=O)O)c(N4CCC(C)(OCC=C)CC4)n3n2)c1` [Example 37, (S)-2-(7-(4-(Allyloxy)-4-methylpiperidin-1-yl)-2-(4-(2-(allyloxy)benzyl)-1H -pyrazol-1-yl)-5-methylpyrazolo[1,5-a]pyrimidin-6-yl)-2-(tert-butoxy)acetic acid], for which the EC50 turned out to be 11 nM.
As to `Cc1nc2cc(-n3cc(Cc4ccccc4)c(Cl)n3)nn2c(N2CCC(C)(C)CC2)c1[C@H](OC(C)(C)C)C(=O)O` [Example 38, (S)-2-(2-(4-Benzyl-3-chloro-1H-pyrazol-1-yl)-7-(4,4-dimethylpiperidin-1-yl)-5-methylpyrazolo[1,5-a]pyrimidin-6-yl)-2-(tert-butoxy)acetic acid], the EC50 worked out at 23 nM.
On the same count and under the same terms, the figure for `Cc1nc2cc(-c3cnn(Cc4ccccc4)c3)nn2c(N2CCC(C)(C)CC2)c1[C@H](OC(C)(C)C)C(=O)O` [Example 39, (S)-2-(2-(1-Benzyl-1H-pyrazol-4-yl)-7-(4,4-dimethylpiperidin-1-yl)-5-methylpyrazolo[1,5-a]pyrimidin-6-yl)-2-(tert-butoxy)acetic acid] is 7 nM.
In the case of `C=CCOC1(C)CCN(c2c([C@H](OC(C)(C)C)C(=O)O)c(C)nc3cc(-c4cnn(Cc5ccccc5)c4)nn23)CC1` [Example 40, (S)-2-(7-(4-(Allyloxy)-4-methylpiperidin-1-yl)-2-(1-benzyl-1H-pyrazol-4-yl)-5-methylpyrazolo[1,5-a]pyrimidin-6-yl)-2-(tert-butoxy)acetic acid], the EC50 worked out at 11 nM.
Same read-out and setting: the figure for `C=CCOC1(C)CCN(c2c([C@H](OC(C)(C)C)C(=O)O)c(C)nc3cc(-c4cn(Cc5ccccc5)cn4)nn23)CC1` [Example 41, (S)-2-(7-(4-(Allyloxy)-4-methylpiperidin-1-yl)-2-(1-benzyl-1H-imidazol-4-yl)-5-methylpyrazolo[1,5-a]pyrimidin-6-yl)-2-(tert-butoxy)acetic acid] is 15 nM.

The assay is the same for the next values; noted with them: NL-RLuc virus infecting MT-2 cells, 5 days of incubation, luciferase readout; at least 2 experiments; serum condition not given; read-out: EC50.
As for `Cc1nc2cc(N3C(=O)OCC3Cc3ccccc3)nn2c(N2CCC(C)(C)CC2)c1[C@H](OC(C)(C)C)C(=O)O` (stereo partly drawn) [Example 27, (2S)-2-(2-(4-Benzyl-2-oxooxazolidin-3-yl)-7-(4,4-dimethylpiperidin-1-yl)-5-methylpyrazolo[1,5-a]pyrimidin-6-yl)-2-(tert-butoxy)acetic acid], the EC50 turned out to be 478 nM.
For the molecule `Cc1nc2cc(N3C(=O)OCC3Cc3ccccc3)nn2c(N2CCC(C)(C)CC2)c1[C@H](OC(C)(C)C)C(=O)O` (stereo partly drawn) [Example 28, (2S)-2-(2-(4-Benzyl-2-oxooxazolidin-3-yl)-7-(4,4-dimethylpiperidin-1-yl)-5-methylpyrazolo[1,5-a]pyrimidin-6-yl)-2-(tert-butoxy)acetic acid], the EC50 is 152 nM.
Regarding `Cc1nc2cc(N3CC(Cc4ccccc4)OC3=O)nn2c(N2CCC(C)(C)CC2)c1[C@H](OC(C)(C)C)C(=O)O` (stereo partly drawn) [Example 29, (2S)-2-(2-(5-Benzyl-2-oxooxazolidin-3-yl)-7-(4,4-dimethylpiperidin-1-yl)-5-methylpyrazolo[1,5-a]pyrimidin-6-yl)-2-(tert-butoxy)acetic acid], the EC50 stood at 6 nM.
As for `Cc1nc2cc(N3CC(Cc4ccccc4)OC3=O)nn2c(N2CCC(C)(C)CC2)c1[C@H](OC(C)(C)C)C(=O)O` (stereo partly drawn) [Example 30, (2S)-2-(2-(5-Benzyl-2-oxooxazolidin-3-yl)-7-(4,4-dimethylpiperidin-1-yl)-5-methylpyrazolo[1,5-a]pyrimidin-6-yl)-2-(tert-butoxy)acetic acid], the EC50 amounted to 16 nM.
With `Cc1nc2cc(N3CCC(Oc4ccccc4)C3=O)nn2c(N2CCC(C)(C)CC2)c1[C@H](OC(C)(C)C)C(=O)O` (stereo partly drawn) [Example 31, (2S)-2-(tert-Butoxy)-2-(7-(4,4-dimethylpiperidin-1 yl)-5-methyl-2-(2-oxo-3-phenoxypyrrolidin-1-yl)pyrazolo[1,5-a]pyrimidin-6-yl)acetic acid], the EC50 was found to be 813 nM.
On to `Cc1nc2cc(N3CCC(Oc4ccccc4)C3=O)nn2c(N2CCC(C)(C)CC2)c1[C@H](OC(C)(C)C)C(=O)O` (stereo partly drawn) [Example 32, (2S)-2-(tert-Butoxy)-2-(7-(4,4-dimethylpiperidin-1-yl)-5-methyl-2-(2-oxo-3-phenoxypyrrolidin-1-yl)pyrazolo[1,5-a]pyrimidin-6-yl)acetic acid], for which the EC50 was determined as 339 nM.

These data come from patent publication US9580431B2, “Inhibitors of human immunodeficiency virus replication” (priority 2013, dated 2017).
